Assay results reported in patent US20260224526A1, “SALT OF DIPEPTIDE COMPOUND, PREPARATION METHOD THEREOF, AND USE THEREOF” (ZHEJIANG HUAHAI PHARMACEUTICAL CO., LTD., priority 2023, published 2026).
≈ marks a conversion by molar mass, not a printed value. Counter-ions that a name gives are not always drawn. Like-named read-outs stand apart in the source and are kept apart here.

What was measured:
deep vein thrombosis = experiment: Rats model of deep vein thrombosis; type: in vivo, SD rats; conditions: for antithrombotic efficacy, Form I and dabigatran etexilate compared: at the same dose, oral
From the text: Experimental animals: SD rats (body weight 220 to 250 g, sex: male)
The thrombus was removed and weighed.

[1] = Blood drug level in rats model of deep vein thrombosis; type: in vivo, SD rats
[2] = Moisture adsorption content / hygroscopicity; type: physicochemical
[3] = Form III stability: mechanical milling and storage at 60° C./sealed condition; type: physicochemical
Solubility = type: physicochemical
Partition coefficient = type: physicochemical
[4] = DVS (Dynamic Vapor Sorption) water absorption; type: physicochemical
pKa = type: physicochemical
[5] = intravenous infusion of 0.1 mg/kg/h in rats

Question: Which results are given for `CC(C)C[C@@H](NCC(=O)O)C(=O)N1CCC[C@H]1C(=O)NCc1ccc(C(=N)N)cc1` [Compound V]?
Answer: antithrombotic effect compared with oral 5 mg/kg Form I (deep vein thrombosis; [5]): comparable; blood drug levels of compound V compared with oral 5 mg/kg Form I [1, 5]: comparable

Question: Which “antithrombotic efficacy, Form I and dabigatran etexilate compared” value (deep vein thrombosis; rats) does the source give for `CCCCCCOC(=O)N=C(N)c1ccc(NCc2nc3cc(C(=O)N(CCC(=O)OCC)c4ccccn4)ccc3n2C)cc1` [Dabigatran etexilate, reference compound] here?
Answer: The value was “basically equivalent”.

Question: With `CCCCCCOC(=O)NC(=N)c1ccc(CNC(=O)[C@@H]2CCCN2C(=O)[C@@H](CC(C)C)NCC(=O)OCC)cc1` [Form A of the monohydrochloride] as the molecule, how does the Moisture adsorption content [2] read?
Answer: The Moisture adsorption content was 0.5 wt %.

Question: Which Hygroscopicity [2] does the source give for `CCCCCCOC(=O)NC(=N)c1ccc(CNC(=O)[C@@H]2CCCN2C(=O)[C@@H](CC(C)C)NCC(=O)OCC)cc1` [Form B of the monohydrochloride] here?
Answer: Its Hygroscopicity is “(Hygroscopic)”.

Question: What about the Moisture adsorption content [2] of the same molecule?
Answer: Its Moisture adsorption content is 3.0 wt %.

Question: With `CCCCCCOC(=O)NC(=N)c1ccc(CNC(=O)[C@@H]2CCCN2C(=O)[C@@H](CC(C)C)NCC(=O)OCC)cc1` [Form III] as the molecule, how does the purity after storage ([3]; 60° C./sealed condition for 7 days) read?
Answer: The purity after storage was 89.35%.

Question: And the purity before storage ([3]; before storage at 60° C./sealed condition)?
Answer: The purity before storage was 95.81%.

Question: Which solubility (Solubility; BA, organic solvent or mixture, read-out: Solubility) does the source give for `CCCCCCOC(=O)NC(=N)c1ccc(CNC(=O)[C@@H]2CCCN2C(=O)[C@@H](CC(C)C)NCC(=O)OCC)cc1` [Form I] here?
Answer: The solubility was < 0.3 mg/mL.

Question: What about the solubility (Solubility; acetonitrile and dichloromethane) of the same molecule?
Answer: Its solubility is 9.0, 10.0, 11.0, 12.0 and 13.0), readily soluble.

Question: What about the solubility (Solubility; buffer solutions with different pH values (1.2, 2.0, 3.0, 4.0, 5.0, 6.0, 7.0, 8.0, 9.0, 10.0, 11.0, 12.0 and 13.0)) of the same molecule?
Answer: Its solubility is “Highly soluble in buffer solutions with different”.

Question: What about the solubility (Solubility; organic solvent or mixture, AC (Acetic acid), read-out: Solubility) of the same molecule?
Answer: Its solubility is > 250 mg/mL.

Question: What about the solubility (Solubility; organic solvent or mixture, ACN (Acetonitrile), read-out: Solubility) of the same molecule?
Answer: The solubility was > 250 mg/mL.

Question: What about the solubility (Solubility; organic solvent or mixture, DMSO (Dimethyl sulfoxide), read-out: Solubility) of the same molecule?
Answer: The solubility was > 250 mg/mL.

Question: And the solubility (Solubility; organic solvent or mixture, Diox (1,4-Dioxane), read-out: Solubility)?
Answer: The solubility was ~125 mg/mL (≈ 218 mM).

Question: What about the solubility (Solubility; organic solvent or mixture, EtOH (Ethanol), read-out: Solubility) of the same molecule?
Answer: The solubility was > 250 mg/mL.

Question: And the solubility (Solubility; organic solvent or mixture, Hept (n-Heptane), read-out: Solubility)?
Answer: The solubility was < 0.3 mg/mL.

Question: And the solubility (Solubility; organic solvent or mixture, IPA (Isopropyl alcohol), read-out: Solubility)?
Answer: The solubility was ~167 mg/mL (≈ 291 mM).

Question: What about the solubility (Solubility; organic solvent or mixture, IPAc (Isopropyl acetate), read-out: Solubility) of the same molecule?
Answer: Its solubility is ~0.5 mg/mL (≈ 0.871 mM).

Question: And the solubility (Solubility; organic solvent or mixture, MEK (Methyl ethyl ketone), read-out: Solubility)?
Answer: Its solubility is ~1.6 mg/mL (≈ 2.79 mM).

Question: What about the solubility (Solubility; organic solvent or mixture, MTBE (Methyl tert-butyl ether), read-out: Solubility) of the same molecule?
Answer: Its solubility is < 0.3 mg/mL.

Question: What about the solubility (Solubility; organic solvent or mixture, NBA (n-Butanol), read-out: Solubility) of the same molecule?
Answer: The solubility was ~167 mg/mL (≈ 291 mM).

Question: What about the solubility (Solubility; organic solvent or mixture, THF (Tetrahydrofuran), read-out: Solubility) of the same molecule?
Answer: Its solubility is ~11.1 mg/mL (≈ 19.3 mM).

Question: What about the solubility (Solubility; organic solvent or mixture, Tol (Toluene), read-out: Solubility) of the same molecule?
Answer: Its solubility is < 0.3 mg/mL.

Question: And the solubility (Solubility; water, read-out: Solubility)?
Answer: The solubility was > 250 mg/mL.

Question: What about the Thrombosis inhibition rate (deep vein thrombosis; 10 mg/kg, oral gavage, rats) of the same molecule?
Answer: The Thrombosis inhibition rate was 70.0%.

Question: What about the “antithrombotic efficacy, Form I and dabigatran etexilate compared” value (deep vein thrombosis; rats) of the same molecule?
Answer: Its value is “basically equivalent”.

Question: What about the logP (Partition coefficient) of the same molecule?
Answer: Its logP is > 3.38.

Question: And the “Log D7.4” value (Partition coefficient; pH 7.4)?
Answer: The value was 2.06.

Question: What about the “form of sample after DVS test” value ([4]; after DVS test) of the same molecule?
Answer: Its value is “converted to amorphous form”.

Question: And the “behaviour of sample at high humidity (DVS)” value ([4]; high humidity)?
Answer: The value was “undergoes deliquescence”.

Question: What about the pKa1 (pKa) of the same molecule?
Answer: Its pKa1 is 4.94.

Question: What about the pKa2 (pKa) of the same molecule?
Answer: Its pKa2 is 5.54.

Question: And the pKa3 (pKa)?
Answer: The pKa3 was 10.61.

Question: What about the Hygroscopicity [2] of the same molecule?
Answer: Its Hygroscopicity is “Hygroscopic”.

Question: And the “blood drug levels of compound V” value ([1]; oral administration of 2.5 mg/kg of Form I to rats)?
Answer: Its value is 190.1 ng/mL.

Question: And the “blood drug levels of compound V” value ([1]; oral administration of 5 mg/kg of Form I to rats)?
Answer: The value was 181.3 ng/mL.

Question: What about the “blood drug levels of compound V” value ([1]; oral administration of 10 mg/kg of Form I to rats) of the same molecule?
Answer: Its value is 341.9 ng/mL.

Question: What about the “blood drug levels of compound V” value ([1]; oral administration of 20 mg/kg of Form I to rats) of the same molecule?
Answer: The value was 609.7 ng/mL.

Question: Which aqueous solubility (Solubility; water) does the source give for `CCCCCCOC(=O)NC(=N)c1ccc(CNC(=O)[C@@H]2CCCN2C(=O)[C@@H](CC(C)C)NCC(=O)OCC)cc1` [dihydrochloride] here?
Answer: The aqueous solubility was “excellent aqueous solubility”.

Question: With `CCCCCCOC(=O)NC(=N)c1ccc(CNC(=O)[C@@H]2CCCN2C(=O)[C@@H](CC(C)C)NCC(=O)OCC)cc1` [free alkali of the compound of formula II] as the molecule, how does the aqueous solubility (Solubility; water) read?
Answer: Its aqueous solubility is “insoluble in water”.

Question: With `CCCCCCOC(=O)NC(=N)c1ccc(CNC(=O)[C@@H]2CCCN2C(=O)[C@@H](CC(C)C)NCC(=O)OCC)cc1` [monohydrochloride] as the molecule, how does the aqueous solubility (Solubility; water) read?
Answer: Its aqueous solubility is “excellent aqueous solubility”.
